Target: truncated PI3Kα (p110α/iSH2 p85α) (Homo sapiens (Human), UniProt P42336)
Assay: PI3KA_Act fluorescence polarization kinase assay (Ki)
Assay type: biochemical
Settings: 1 mM ATP
Procedure, shortened: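 Ki values result from fitting fluorescence polarization signals to the Morrison equation for tight-binding competitive inhibitors. The detector was GST-Grp1 PH domain with TAMRA-PIP3, read after a 30 min room-temperature reaction of 0.5 nM truncated PI3Kα and 30 μM PIP2 at pH 7.4 in HEPES/NaCl/MgCl2/DTT/CHAPS buffer. Compounds were tested as 12-point 3-fold dilutions from 3 μM.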

Chain of truncated PI3Kα (p110α/iSH2 p85α) (P42336 whole entry, the tested form may be a part): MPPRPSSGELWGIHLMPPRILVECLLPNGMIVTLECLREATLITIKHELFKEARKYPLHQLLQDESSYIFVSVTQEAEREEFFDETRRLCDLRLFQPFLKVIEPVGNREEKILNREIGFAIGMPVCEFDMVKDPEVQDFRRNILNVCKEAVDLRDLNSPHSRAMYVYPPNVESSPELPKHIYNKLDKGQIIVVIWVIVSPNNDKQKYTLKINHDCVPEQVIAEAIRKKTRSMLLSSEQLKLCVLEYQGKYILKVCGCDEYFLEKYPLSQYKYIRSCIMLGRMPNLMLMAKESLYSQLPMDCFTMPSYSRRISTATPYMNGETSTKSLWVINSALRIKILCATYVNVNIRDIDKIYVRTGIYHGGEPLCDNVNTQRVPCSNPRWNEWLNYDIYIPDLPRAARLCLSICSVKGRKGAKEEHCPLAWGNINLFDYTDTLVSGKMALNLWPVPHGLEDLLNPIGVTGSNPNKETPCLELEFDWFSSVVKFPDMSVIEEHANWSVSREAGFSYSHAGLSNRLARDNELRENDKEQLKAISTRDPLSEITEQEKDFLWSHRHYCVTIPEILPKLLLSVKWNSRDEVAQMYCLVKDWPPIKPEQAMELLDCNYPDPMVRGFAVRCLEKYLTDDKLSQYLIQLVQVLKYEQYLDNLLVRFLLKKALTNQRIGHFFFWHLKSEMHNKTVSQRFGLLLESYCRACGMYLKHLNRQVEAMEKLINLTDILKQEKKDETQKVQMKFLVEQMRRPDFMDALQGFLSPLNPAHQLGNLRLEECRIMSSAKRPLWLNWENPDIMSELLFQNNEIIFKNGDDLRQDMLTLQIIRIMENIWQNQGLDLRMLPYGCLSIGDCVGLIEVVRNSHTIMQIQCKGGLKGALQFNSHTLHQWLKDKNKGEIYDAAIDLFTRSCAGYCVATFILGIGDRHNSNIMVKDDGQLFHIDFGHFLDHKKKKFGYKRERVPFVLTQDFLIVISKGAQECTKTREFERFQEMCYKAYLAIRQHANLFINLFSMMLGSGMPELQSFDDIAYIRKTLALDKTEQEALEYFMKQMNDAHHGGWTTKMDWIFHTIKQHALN

Structure (SMILES) | PI3KA_Act Ki [nM]
C[C@]1(N2CCc3c(-c4cnc(N)nc4)nc(N4CCOCC4)nc32)CCN(C(=O)[C@](C)(N)C(F)(F)F)C1.Cl [Example 312, (2S)-2-amino-1-{(3S)-3-[4-(2-aminopyrimidin-5-yl)-2-(morpholin-4-yl)-5,6-dihydro-7H-pyrrolo[2,3-d]pyrimidin-7-yl]-3-methylpyrrolidin-1-yl}-3,3,3-trifluoro-2-methylpropan-1-one hydrochloride] | 0.037
C[C@]1(N2CCc3c(-c4cnc(N)nc4)nc(N4CCOCC4)nc32)CCN(C(=O)[C@@H](N)C(F)(F)F)C1.Cl [Example 313, (2R)-2-amino-1-{(3S)-3-[4-(2-aminopyrimidin-5-yl)-2-(morpholin-4-yl)-5,6-dihydro-7H-pyrrolo[2,3-d]pyrimidin-7-yl]-3-methylpyrrolidin-1-yl}-3,3,3-trifluoropropan-1-one hydrochloride] | 0.128
C[C@]1(N2CCc3c(-c4cnc(N)nc4)nc(N4CCOCC4)nc32)CCN(C(=O)[C@H](N)C(F)(F)F)C1.Cl [Example 314, (2S)-2-amino-1-{(3S)-3-[4-(2-aminopyrimidin-5-yl)-2-(morpholin-4-yl)-5,6-dihydro-7H-pyrrolo[2,3-d]pyrimidin-7-yl]-3-methylpyrrolidin-1-yl}-3,3,3-trifluoropropan-1-one hydrochloride] | <0.018
CC(C(N)=O)C(=O)N1CC[C@](C)(N2CCc3c(-c4cnc(N)nc4)nc(N4CCOCC4)nc32)C1 (stereo partly drawn) [Example 315, 3-{(3S)-3-[4-(2-aminopyrimidin-5-yl)-2-(morpholin-4-yl)-5,6-dihydro-7H-pyrrolo[2,3-d]pyrimidin-7-yl]-3-methylpyrrolidin-1-yl}-2-methyl-3-oxopropanamide] | <0.018
CC(C)(C(N)=O)C(=O)N1CC[C@](C)(N2CCc3c(-c4cnc(N)nc4)nc(N4CCOCC4)nc32)C1 [Example 318, 3-{(3S)-3-[4-(2-aminopyrimidin-5-yl)-2-(morpholin-4-yl)-5,6-dihydro-7H-pyrrolo[2,3-d]pyrimidin-7-yl]-3-methylpyrrolidin-1-yl}-2,2-dimethyl-3-oxopropanamide] | 0.076
CC(C)(C(=O)O)C(=O)N1CC[C@](C)(N2CCc3c(-c4cnc(N)nc4)nc(N4CCOCC4)nc32)C1 [Example 319, 3-{(3S)-3-[4-(2-aminopyrimidin-5-yl)-2-(morpholin-4-yl)-5,6-dihydro-7H-pyrrolo[2,3-d]pyrimidin-7-yl]-3-methylpyrrolidin-1-yl}-2,2-dimethyl-3-oxopropanoic acid] | 2.266
CC(C(=O)O)C(=O)N1CC[C@](C)(N2CCc3c(-c4cnc(N)nc4)nc(N4CCOCC4)nc32)C1 (stereo partly drawn) [Example 320, 3-{(3S)-3-[4-(2-aminopyrimidin-5-yl)-2-(morpholin-4-yl)-5,6-dihydro-7H-pyrrolo[2,3-d]pyrimidin-7-yl]-3-methylpyrrolidin-1-yl}-2-methyl-3-oxopropanoic acid] | 0.318
CCOC(=O)C(C)C(=O)N1CC[C@](C)(N2CCc3c(-c4cnc(N)nc4)nc(N4CCOCC4)nc32)C1 (stereo partly drawn) [Example 321, ethyl 3-{(3S)-3-[4-(2-aminopyrimidin-5-yl)-2-(morpholin-4-yl)-5,6-dihydro-7H-pyrrolo[2,3-d]pyrimidin-7-yl]-3-methylpyrrolidin-1-yl}-2-methyl-3-oxopropanoate] | 0.042
CCOC(=O)C(C)(C)C(=O)N1CC[C@](C)(N2CCc3c(-c4cnc(N)nc4)nc(N4CCOCC4)nc32)C1 [Example 322, ethyl 3-{(3S)-3-[4-(2-aminopyrimidin-5-yl)-2-(morpholin-4-yl)-5,6-dihydro-7H-pyrrolo[2,3-d]pyrimidin-7-yl]-3-methylpyrrolidin-1-yl}-2,2-dimethyl-3-oxopropanoate] | <0.018
C[C@]1(N2CCc3c(-c4cnc(N)nc4)nc(N4CCOCC4)nc32)CCN(C(=O)CC2CC2)C1 [Example 323, 1-{(3S)-3-[4-(2-aminopyrimidin-5-yl)-2-(morpholin-4-yl)-5,6-dihydro-7H-pyrrolo[2,3-d]pyrimidin-7-yl]-3-methylpyrrolidin-1-yl}-2-cyclopropylethanone] | <0.018
C[C@@]1(N2CCc3c(-c4cnc(N)nc4)nc(N4CCOCC4)nc32)CCN(C(=O)CC2CC2)C1 [Example 324, 1-{(3R)-3-[4-(2-aminopyrimidin-5-yl)-2-(morpholin-4-yl)-5,6-dihydro-7H-pyrrolo[2,3-d]pyrimidin-7-yl]-3-methylpyrrolidin-1-yl}-2-cyclopropylethanone] | 0.198
C[C@]1(N2CCc3c(-c4cnc(N)nc4)nc(N4CCOCC4)nc32)CCN(C(=O)CN2CCC2)C1 [Example 325, 1-{(3S)-3-[4-(2-aminopyrimidin-5-yl)-2-(morpholin-4-yl)-5,6-dihydro-7H-pyrrolo[2,3-d]pyrimidin-7-yl]-3-methylpyrrolidin-1-yl}-2-(azetidin-1-yl)ethanone] | 0.058
C[C@]1(N2CCc3c(-c4cnc(N)nc4)nc(N4CCOCC4)nc32)CCN(C(=O)C2CC2)C1 [Example 328, {(3S)-3-[4-(2-aminopyrimidin-5-yl)-2-(morpholin-4-yl)-5,6-dihydro-7H-pyrrolo[2,3-d]pyrimidin-7-yl]-3-methylpyrrolidin-1-yl}(cyclopropyl) methanone] | 0.024
CC1(C(=O)N2CC[C@](C)(N3CCc4c(-c5cnc(N)nc5)nc(N5CCOCC5)nc43)C2)CC1 [Example 329, {(3S)-3-[4-(2-aminopyrimidin-5-yl)-2-(morpholin-4-yl)-5,6-dihydro-7H-pyrrolo[2,3-d]pyrimidin-7-yl]-3-methylpyrrolidin-1-yl}(1-methylcyclopropyl) methanone] | <0.018
CC1(C(=O)N2CC[C@@](C)(N3CCc4c(-c5cnc(N)nc5)nc(N5CCOCC5)nc43)C2)CC1 [Example 330, {(3R)-3-[4-(2-aminopyrimidin-5-yl)-2-(morpholin-4-yl)-5,6-dihydro-7H-pyrrolo[2,3-d]pyrimidin-7-yl]-3-methylpyrrolidin-1-yl}(1-methylcyclopropyl) methanone] | 0.152
C[C@]1(N2CCc3c(-c4cnc(N)nc4)nc(N4CCOCC4)nc32)CCN(C(=O)[C@H]2C[C@@H]2F)C1 [Example 332, {(3S)-3-[4-(2-aminopyrimidin-5-yl)-2-(morpholin-4-yl)-5,6-dihydro-7H-pyrrolo[2,3-d]pyrimidin-7-yl]-3-methylpyrrolidin-1-yl}[(1R,2S)-2-fluorocyclopropyl] methanone] | <0.018
C[C@]1(N2CCc3c(-c4cnc(N)nc4)nc(N4CCOCC4)nc32)CCN(C(=O)[C@@H]2C[C@H]2F)C1 [Example 333, {(3S)-3-[4-(2-aminopyrimidin-5-yl)-2-(morpholin-4-yl)-5,6-dihydro-7H-pyrrolo[2,3-d]pyrimidin-7-yl]-3-methylpyrrolidin-1-yl}[(1S,2R)-2-fluorocyclopropyl] methanone] | <0.018
C[C@]1(N2CCc3c(-c4cnc(N)nc4)nc(N4CCOCC4)nc32)CCN(C(=O)[C@@H]2C[C@@H]2F)C1 [Example 334, {(3S)-3-[4-(2-aminopyrimidin-5-yl)-2-(morpholin-4-yl)-5,6-dihydro-7H-pyrrolo[2,3-d]pyrimidin-7-yl]-3-methylpyrrolidin-1-yl}[(1S,2S)-2-fluorocyclopropyl] methanone] | 0.021
C[C@]1(N2CCc3c(-c4cnc(N)nc4)nc(N4CCOCC4)nc32)CCN(C(=O)[C@H]2C[C@H]2F)C1 [Example 335, {(3S)-3-[4-(2-aminopyrimidin-5-yl)-2-(morpholin-4-yl)-5,6-dihydro-7H-pyrrolo[2,3-d]pyrimidin-7-yl]-3-methylpyrrolidin-1-yl}[(1R,2R)-2-fluorocyclopropyl] methanone] | <0.018
C[C@]1(N2CCc3c(-c4cnc(N)nc4)nc(N4CCOCC4)nc32)CCN(C(=O)[C@H]2CC2(F)F)C1 [Example 336, {(3S)-3-[4-(2-aminopyrimidin-5-yl)-2-(morpholin-4-yl)-5,6-dihydro-7H-pyrrolo[2,3-d]pyrimidin-7-yl]-3-methylpyrrolidin-1-yl}[(1R)-2,2-difluorocyclopropyl] methanone] | 0.054
C[C@]1(N2CCc3c(-c4cnc(N)nc4)nc(N4CCOCC4)nc32)CCN(C(=O)[C@@H]2CC2(F)F)C1 [Example 337, {(3S)-3-[4-(2-aminopyrimidin-5-yl)-2-(morpholin-4-yl)-5,6-dihydro-7H-pyrrolo[2,3-d]pyrimidin-7-yl]-3-methylpyrrolidin-1-yl}[(1S)-2,2-difluorocyclopropyl] methanone] | <0.018
C[C@]1(N2CCc3c(-c4cnc(N)nc4)nc(N4CCOCC4)nc32)CCN(C(=O)C2(N)CC2)C1.Cl [Example 340, (1-aminocyclopropyl) {(3S)-3-[4-(2-aminopyrimidin-5-yl)-2-(morpholin-4-yl)-5,6-dihydro-7H-pyrrolo[2,3-d]pyrimidin-7-yl]-3-methylpyrrolidin-1-yl}methanone hydrochloride] | 0.234
C[C@]1(N2CCc3c(-c4cnc(N)nc4)nc(N4CCOCC4)nc32)CCN(C(=O)C2CCC2)C1 [Example 341, {(3S)-3-[4-(2-aminopyrimidin-5-yl)-2-(morpholin-4-yl)-5,6-dihydro-7H-pyrrolo[2,3-d]pyrimidin-7-yl]-3-methylpyrrolidin-1-yl}(cyclobutyl)meth-anone] | <0.018
C[C@@]1(N2CCc3c(-c4cnc(N)nc4)nc(N4CCOCC4)nc32)CCN(C(=O)C2CCC2)C1 [Example 342, {(3R)-3-[4-(2-aminopyrimidin-5-yl)-2-(morpholin-4-yl)-5,6-dihydro-7H-pyrrolo[2,3-d]pyrimidin-7-yl]-3-methylpyrrolidin-1-yl}(cyclobutyl)meth-anone] | 0.141
